One molecule from US10919905B2, “Polymorphism for irinotecan free base” (ScinoPharm Taiwan, Ltd., priority 2019, dated 2021) can be followed below.

The series can be described thus: variable humidity x-ray powder diffraction (VH-XRPD), humidity effect on XRPD pattern. Type of series: physicochemical. The following applies: FIG. 7. How it is done:
X-ray Powder Diffraction patterns were collected on a Bruker AXS D8 diffractometer using Cu Kα1 radiation (40 kV, 40 mA), θ-2θ goniometer, and divergence of 10 mm slits, a Ge monochromator and LynxEye detector. The representative PXRD pattern was collected under ambient condition.
Irinotecan free base (119 g) and dichloromethane (1600 mL, 13.5 vol) were added to a 3 L flask at room temperature (20-30° C.) to obtain a first suspension mixture. Water (120 mL, 1 vol) and 5% sodium bicarbonate (480 mL, 4 vol) were added to the first mixture at room temperature. The suspension was filtered, and then the phases were allowed to separate, and an organic layer was saved. Water (600 mL, 5 vol) was added, and the phases were allowed to separate, and the organic layer was saved. The organic layer was concentrated to about 430 mL (3.6 vol). Ethyl acetate (1440 mL, 12 vol) was added to the concentrated organic layer at 25-35° C. to obtain a second mixture. The second mixture was concentrated to about 1665 mL (14 vol) then cooled to 15-25° C. to obtain a slurry mixture. The slurry mixture was filtered, and a wet cake was obtained and dried under the nitrogen to afford irinotecan free base form S3 (98.04 g). The Form S3 was studied by using variable humidity x-ray powder diffraction (VH-XRPD) to investigate the humidity effect on XRPD pattern (FIG. 7). […] The changes in diffraction peaks are reversible with the humidity being changed.

Consider `CCc1c2c(nc3ccc(OC(=O)N4CCC(N5CCCCC5)CC4)cc13)-c1cc3c(c(=O)n1C2)COC(=O)[C@]3(O)CC` [Form S3, [1,4′-bipiperidine]-1′-carboxylic acid, (4S)-4,11-diethyl-3,4,12,14-tetrahydro-4-hydroxy-3,14-dioxo-1H-pyrano[3′,4′:6,7]indolizino[1,2-b]quinolin-9-yl ester], for which the “humidity effect on XRPD pattern (change in diffraction peaks)” value reads like this: (sample exposed at 5-40% RH) “no significant change in diffraction peaks was observed”; (sample exposed at higher than 60% RH) “the diffraction peaks changed”. The “reversibility of changes in diffraction peaks” value (with the humidity being changed) is given as “reversible”.
